Assay results reported in US4748254A, “Mixed carboxylato platinum (II) complexes” (priority 1984, dated 1988).

Experiments:
[1] = tested on: hepatoma 22a; experiment: Increase of lifespan of mice with grafted hepatoma 22a; type: in vivo
Method: (§1) As the criteria for the antitumor activity for leukosises and ascytic forms of tumors the increase of the lifespan of treated animals (ILS, %)
(§2) T--average lifespan of treated animals;
(§3) C--average lifespan of control animals;
(§4) The experiments were carried out on line mice and their hybrides of the first generation. […]

[2] = tested on: plasmacytoma MOPC-406; experiment: Increase of lifespan of mice with plasmacytoma MOPC-406; type: in vivo; conditions: for curing of animals with plasmocytoma MOPC-406: in words
Method: as §1, §2, §3, §4

[3] = tested on: tumors; conditions: in words; cited from earlier work
[4] = tested on: plasmacytoma of mice ADJ/PC6A; conditions: cited from earlier work
[5] = tested on: mammal adenocarcinoma Ca 755; experiment: Tumor growth inhibition of mammal adenocarcinoma Ca 755; type: in vivo, mice
Method: and for a solid tumor--tumor growth inhibition (TGI, %)
O--volume of tumors in the group of treated animals;
K--volume of tumors in the control group were employed.
as §4

[6] = tested on: lymphoid leukosis L-1210; experiment: Increase of lifespan of mice with lymphoid leukosis L-1210; type: in vivo; conditions: 3 mg/kg i.p. in 0.9% NaCl, days of treatment 1-5
[7] = tested on: hemocytoblastosis La; experiment: Increase of lifespan of mice with hemocytoblastosis La; type: in vivo
Method: as §1, §2, §3, §4

[8] = tested on: lymphoid leukosis L-1210; experiment: Increase of lifespan of mice with lymphoid leukosis L-1210; type: in vivo
Method: as §1, §2, §3
The experiments were carried out on line mice and their hybrides of the first generation. […] The compounds were administered to animals intraperitoneally in a 5% solution of glucose once or daily over 5 days within the time limits adopted in experimental studies of corresponding tumors.

[9] = Storage stability and hygroscopicity; type: physicochemical; conditions: in words
[10] = cited from earlier work
[11] = cited from earlier work; remark: listed apart in the source
[12] = tested on: graft strains of tumors and leukoses of mice; experiment: Antitumor activity, overall statement; type: in vivo; conditions: in words
Method: The antitumor activity of the compounds according to the present invention has been studied on a number of strains of grafted solid tumors and leukosises of mice: plasmacytoma MOPC-406, lymphoid leukosis L-1210, hemocytoblastosis La, hepatoma 22a, mammal adenocarcinoma Ca 755.
The experiments were carried out on line mice and their hybrides of the first generation. […] The compounds were administered to animals intraperitoneally in a 5% solution of glucose once or daily over 5 days within the time limits adopted in experimental studies of corresponding tumors. […]

[13] = 5 mg/kg i.p. in 0.9% NaCl, day 3
[14] = 2 mg/kg i.p. in 0.9% NaCl, days of treatment 2-5
[15] = 15-25 mg/kg i.p., days of treatment 2-6
[16] = 30 mg/kg i.p., days of treatment 2-6
[17] = 20-40 mg/kg i.p., days of treatment 2-6
[18] = 20-25 mg/kg i.p., days of treatment 2-6
[19] = 20 mg/kg i.p., days of treatment 7-11

In the case of `N.N.[Cl][Pt][Cl]` [DDP, cis-dichlorodiammineplatinum(II), reference compound], the “Increase of lifespan, %, Hepatoma 22a” value [1, 13] is reported as 120%, the “number of cured animals / animals employed, Hepatoma 22a” value [1, 13] is reported as 0/6 and the “curing of animals with hepatoma 22a” value ([1]; in words) is reported as “no curing of animals”. For the same compound, the “Increase of lifespan, %, MOPC-406” value [2, 14] was 140%, the “number of cured animals / animals employed, MOPC-406” value [2, 14] was 0/6 and the “curing of animals with plasmocytoma MOPC-406” value [2] was “no curing of animals”. The antitumor activity [3] was “high antitumor activity”, the “spectrum of action on diverse tumors” value [3] was “remarkably wide spectrum of action on diverse tumors” and the “ID90 (dose inhibiting growth of tumors by 90%)” value ([4]; plasmacytoma ADJ/PC6A, mice) was 1.6 mg/kg. For the same compound, the “Tumor growth inhibition, %, Ca-755” value ([5]; 8 mg/kg i.p. in 0.9% NaCl, day 2) was 95%, the “Increase of lifespan, %, L-1210” value [6] was 116% and the “Increase of lifespan, %, La” value ([7]; 8 mg/kg i.p. in 0.9% NaCl, day 1) was 200%.

With `N.NC1CC1.O=C([O-])CC(=O)[O-].[Pt+2]` [Example 1, malonatoammine(cyclopropylamine)platinum(II)] the “Increase of lifespan, %, L-1210” value [8, 15] was 39%, the “Increase of lifespan, %, L-1210” value ([8]; 60-70 mg/kg i.p., day 2) was 48% and the “Increase of lifespan, %, Hepatoma 22a” value [1, 15] was 85%. The “number of cured animals / animals employed, Hepatoma 22a” value [1, 15] was 0/6, the “Increase of lifespan, %, MOPC-406” value ([2]; 60 mg/kg i.p., day 7) was 150% and the “number of cured animals / animals employed, MOPC-406” value ([2]; 60 mg/kg i.p., day 7) was 1/6. The “Increase of lifespan, %, MOPC-406” value [2, 15] was 268%, the “number of cured animals / animals employed, MOPC-406” value [2, 15] was 2/6 and the “Increase of lifespan, %, MOPC-406” value ([2]; 60-70 mg/kg i.p., day 2) was 177%. For the same compound, the “number of cured animals / animals employed, MOPC-406” value ([2]; 60-70 mg/kg i.p., day 2) was 1/6, the “curing of animals with plasmocytoma MOPC-406” value [2] was “ensure curing of a certain number of animals (up to 100%)” and the “Tumor growth inhibition, %, Ca-755” value [5, 15] was 89%. The “Increase of lifespan, %, La” value [7, 15] was 29%.

With `N.NC1CCC1.O=C1[O][Pt][O]C(=O)C1O` [Example 3, (hydroxymalonato)ammine(cyclobutylamine)platinum(II)] the “Increase of lifespan, %, L-1210” value ([8]; 25 mg/kg i.p., days of treatment 2-6) was 100%, the “Increase of lifespan, %, L-1210” value ([8]; 60 mg/kg i.p., day 2) was 71% and the “Tumor growth inhibition, %, Ca-755” value ([5]; 20 mg/kg i.p., days of treatment 2-6) was 70%.

In the case of `[NH2][Pt]1([NH]C2CCCC2)[O]C(=O)CC(=O)[O]1` [Example 6, malonatoammine(cyclopentylamine)platinum(II)], the “Increase of lifespan, %, L-1210” value [8, 15] is reported as 36%, the “Increase of lifespan, %, L-1210” value ([8]; 40-60 mg/kg i.p., day 2) is reported as 45% and the hygroscopicity [9] is reported as “very hygroscopic”. The “Increase of lifespan, %, Hepatoma 22a” value [1, 15] was 140%, the “number of cured animals / animals employed, Hepatoma 22a” value [1, 15] was 2/6 and the “curing of animals with hepatoma 22a” value ([1]; in words) was “cure a portion of animals”. For the same compound, the “Increase of lifespan, %, MOPC-406” value ([2]; 50 mg/kg i.p., day 7) was 329%, the “number of cured animals / animals employed, MOPC-406” value ([2]; 50 mg/kg i.p., day 7) was 3/6 and the “Increase of lifespan, %, MOPC-406” value [2, 15] was 286%. For the same compound, the “number of cured animals / animals employed, MOPC-406” value [2, 15] was 3/6, the “Increase of lifespan, %, MOPC-406” value ([2]; 40-60 mg/kg i.p., day 2) was 300% and the “number of cured animals / animals employed, MOPC-406” value ([2]; 40-60 mg/kg i.p., day 2) was 5/6. The “curing of animals with plasmocytoma MOPC-406” value [2] was “ensure curing of a certain number of animals (up to 100%)”, the “Tumor growth inhibition, %, Ca-755” value [5, 15] was 76% and the “Increase of lifespan, %, La” value [7, 15] was 21%.

In the case of `[NH2][Pt]1([NH]C2CCCCC2)[O]C(=O)CCC(=O)[O]1` [Example 15, succinatoammine(cyclohexylamine)platinum(II)], the “Increase of lifespan, %, L-1210” value [8, 16] is reported as 108%, the “Increase of lifespan, %, L-1210” value ([8]; 150 mg/kg i.p., day 2) is reported as 120% and the “Tumor growth inhibition, %, Ca-755” value [5, 16] is reported as 72%.

With `N.NCC1CCCO1.O.O=C1C[C@H](O)C(=O)[O][Pt][O]1` [Example 21, S(-)-malatoammine(tetrahydrofurfurylamine)platinum(II)] the “Increase of lifespan, %, L-1210” value [8, 17] was 120%, the “Increase of lifespan, %, Hepatoma 22a” value [1, 17] was 340% and the “number of cured animals / animals employed, Hepatoma 22a” value [1, 17] was 2/6. The “curing of animals with hepatoma 22a” value ([1]; in words) was “cure a portion of animals”, the “Increase of lifespan, %, MOPC-406” value [2, 17] was 280% and the “number of cured animals / animals employed, MOPC-406” value [2, 17] was 3/6. The “curing of animals with plasmocytoma MOPC-406” value [2] was “ensure curing of a certain number of animals (up to 100%)” and the “Tumor growth inhibition, %, Ca-755” value [5, 17] was 95%.

For `[Cl][Pt-2]([Cl])([NH2+]C1CCCC1)[NH2+]C1CCCC1` [cis-[PtCl2 (cyclo-C5 H9 NH2)2]], the solubility in water ([10]; prior art compound, in words) is listed as “substantially insoluble in water”, the “therapeutic response or side effect” value ([11]; fine suspensions in sesame oil or aqueous solloids stabilized by polyvinylpyrrolidone) is listed as “no therapeutic response or a side effect” and the local irritation ([11]; in vivo) is listed as “local irritation upon administration of an oily suspension”. The “retention at the spot of the injection” value ([11]; in vivo) was “substantially remains at the spot of the injection”, the “ID90 (dose inhibiting growth of tumors by 90%)” value ([4]; plasmacytoma ADJ/PC6A, mice) was 2.4 mg/kg and the “therapeutical index TI=LD50/ID90” value ([4]; plasmacytoma ADJ/PC6A, mice) was 200.

For `N.NC1CCCC1.[Cl][Pt][Cl]` [cis-[PtCl2 NH3 (cyclo-C5 H9 NH2)]], the “solubility in 0.9% NaCl” value ([10]; 0.9% NaCl) is listed as “about 1 mg/ml”, the “advantage over parent compounds with identical ligands” value [3] is listed as “absence of advantages of this mixed complex as compared to the parent compounds with identical ligands” and the “toxicity compared with DDP” value ([4]; in words, versus DDP) is listed as “slightly more toxic than DDP”. The LD50 ([4]; mice, plasmacytoma ADJ/PC6A tests) was 11.0 mg/kg, the “ID90 (dose inhibiting growth of tumors by 90%)” value ([4]; plasmacytoma ADJ/PC6A, mice) was 0.5 mg/kg and the “90% tumor growth inhibiting dose, times less than that of DDP” value ([4]; plasmacytoma ADJ/PC6A, versus DDP) was 3 times. For the same compound, the “90% tumor growth inhibiting dose, times less than that of cis-[PtCl2 (cyclo-C5 H9 NH2)2 ]” value ([4]; plasmacytoma ADJ/PC6A, versus cis-[PtCl2 (cyclo-C5 H9 NH2)2 ]) was ~5 times.

For `NC1CCCCC1.NC1CCCCC1.[Cl][Pt][Cl]` [complex with cyclohexylamine], the “therapeutical index TI=LD50/ID90” value ([4]; plasmacytoma ADJ/PC6A, mice) is given as “above 267”.

In the case of “RS-malatoammine(cyclopentylamine)platinum(II) [Example 5]”, the “Increase of lifespan, %, L-1210” value [8, 18] is reported as 156%, the “Increase of lifespan, %, Hepatoma 22a” value [1, 18] is reported as 322% and the “number of cured animals / animals employed, Hepatoma 22a” value [1, 18] is reported as 2/6. For the same compound, the “curing of animals with hepatoma 22a” value ([1]; in words) was “cure a portion of animals”, the “Increase of lifespan, %, MOPC-406” value [2, 18] was 350% and the “number of cured animals / animals employed, MOPC-406” value [2, 18] was 4/6. The “curing of animals with plasmocytoma MOPC-406” value [2] was “ensure curing of a certain number of animals (up to 100%)” and the “Tumor growth inhibition, %, Ca-755” value [5, 18] was 95%.

For “S(-)malatoammine(cyclopentylamine)platinum(II) [Example 4]”, the “Increase of lifespan, %, L-1210” value [8, 15] was 195%, the “Increase of lifespan, %, L-1210” value ([8]; 60-80 mg/kg i.p., day 2) was 101% and the “extension of life span of animals with leukemia L-1210” value ([8]; optimal doses) was 195%. The hygroscopicity [9] was “hydroscopic”, the antitumor activity [12] was “highest antitumor activity among the compounds according to the present invention” and the “Increase of lifespan, %, Hepatoma 22a” value [1, 15] was 225%. For the same compound, the “number of cured animals / animals employed, Hepatoma 22a” value [1, 15] was 4/6, the “curing of animals with hepatoma 22a” value ([1]; in words) was “cure a portion of animals” and the “curing of animals with hepatoma 22a” value ([1]; optimal doses) was “up to 66%”. The “Increase of lifespan, %, MOPC-406” value [2, 19] was 356%, the “number of cured animals / animals employed, MOPC-406” value [2, 19] was 3/6 and the “Increase of lifespan, %, MOPC-406” value [2, 15] was 327%. For the same compound, the “number of cured animals / animals employed, MOPC-406” value [2, 15] was 6/6, the “Increase of lifespan, %, MOPC-406” value ([2]; 60-80 mg/kg i.p., day 2) was 310% and the “number of cured animals / animals employed, MOPC-406” value ([2]; 60-80 mg/kg i.p., day 2) was 5/6. The “curing of animals with plasmocytoma MOPC-406” value [2] was “ensure curing of a certain number of animals (up to 100%)”, the “curing of animals with plasmacytoma MOPC-406” value ([2]; optimal doses) was “up to 100%” and the “Tumor growth inhibition, %, Ca-755” value [5, 15] was 96%. For the same compound, the “Increase of lifespan, %, La” value [7, 15] was 113%, the “lifespan of animals with hemocytoblastosis La” value ([7]; in words) was “considerably extends the lifespan” and the “extension of life span of animals with hemocytoblastosis La” value ([7]; optimal doses) was 113%.
